Laboratory results published in patent US9776972B2, “Pyrazole derivatives as arginine methyltransferase inhibitors and uses thereof” (priority 2013, dated 2017).
Like-named read-outs stand apart in the source and are kept apart here.

Key:
[1] = molecular target: T1, human PRMT6 (Homo sapiens, UniProt Q96LA8); test: PRMT6 Biochemical Assay (3H-SAM Flashplate, peptide substrate)
T1 construct: Flag-PRMT6-His; made in house; host or cells: HEK 293F cells (BacMam baculovirus)
Summary of the method: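 Methylation of a biotin-tagged H4 (36-50) peptide by ³H-SAM was quantified by streptavidin Flashplate capture and scintillation counts (dpm/cpm). Before SAM/peptide addition, Flag-PRMT6-His was preincubated with compound for 30 min at room temperature in Bicine buffer, pH 7.6.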

[2] = molecular target: T2, Human CARM1 (PRMT4) (Homo sapiens, UniProt Q86X55); test: CARM1 Biochemical Assay (3H-SAM Flashplate, peptide substrate); settings: single experiment or average of multiple experiments
T2 construct: Flag-CARM1-His; made in house; host or cells: HEK 293F cells (BacMam baculovirus)
T2 sequence (Q86X55 1-585 isoform Q86X55-1): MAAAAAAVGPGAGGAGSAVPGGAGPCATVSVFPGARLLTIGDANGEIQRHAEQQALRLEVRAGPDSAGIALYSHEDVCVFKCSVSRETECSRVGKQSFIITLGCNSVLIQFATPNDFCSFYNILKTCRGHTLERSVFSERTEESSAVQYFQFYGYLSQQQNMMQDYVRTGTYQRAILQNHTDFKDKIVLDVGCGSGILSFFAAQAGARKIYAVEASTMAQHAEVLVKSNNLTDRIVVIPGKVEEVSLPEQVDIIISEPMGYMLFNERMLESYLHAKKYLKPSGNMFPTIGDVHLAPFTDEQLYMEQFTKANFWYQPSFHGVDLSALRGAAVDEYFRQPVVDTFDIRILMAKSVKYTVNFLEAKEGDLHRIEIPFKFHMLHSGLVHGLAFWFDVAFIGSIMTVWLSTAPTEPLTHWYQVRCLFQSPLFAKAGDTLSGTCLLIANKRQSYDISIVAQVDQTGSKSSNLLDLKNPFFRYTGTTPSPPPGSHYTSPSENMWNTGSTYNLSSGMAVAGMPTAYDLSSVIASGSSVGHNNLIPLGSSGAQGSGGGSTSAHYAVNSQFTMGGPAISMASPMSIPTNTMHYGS
Summary of the method: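 Flag-CARM1-His from baculovirus was pre-incubated with compound for 30 min at room temperature in 20 mM Bicine pH 7.6, then reacted with 3H-SAM and a biotinylated H3(16-30) R26-monomethyl peptide.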

[3] = single experiment or average of multiple experiments, read-out: Biochemical IC50 PRMT6
[4] = Biochemical IC50 PRMT6, single experiment or average of multiple experiments

T1 sequence (Q96LA8 with tags, fused parts or gaps): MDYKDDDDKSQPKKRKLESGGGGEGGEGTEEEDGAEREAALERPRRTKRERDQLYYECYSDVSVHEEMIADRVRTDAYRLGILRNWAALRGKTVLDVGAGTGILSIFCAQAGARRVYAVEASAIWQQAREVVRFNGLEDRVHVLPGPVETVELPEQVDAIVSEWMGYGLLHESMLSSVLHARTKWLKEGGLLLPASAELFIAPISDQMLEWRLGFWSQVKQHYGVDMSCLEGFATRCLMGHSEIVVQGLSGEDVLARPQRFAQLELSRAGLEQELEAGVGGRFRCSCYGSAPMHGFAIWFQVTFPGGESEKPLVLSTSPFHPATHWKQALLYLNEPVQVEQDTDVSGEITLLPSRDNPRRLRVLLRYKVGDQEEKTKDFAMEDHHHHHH

Row | Compound | IC50 [1, 3] [nM] | IC50 [2] [nM] | IC50 [1, 4] [nM]
1 | CN(CCN)Cc1c[nH]nc1-c1ccc(F)cc1 [Compound 1] | 11 | 1350 | –
2 | CN(CCN)Cc1cn(C)nc1-c1ccc(F)cc1 [Compound 3] | – | – | 27
3 | CN(CCN)Cc1cnn(C)c1-c1ccc(F)cc1 [Compound 4] | – | 742 | 76.1
4 | COCCn1cc(CN(C)CCN)c(-c2ccc(F)cc2)n1 [Compound 5] | – | – | 467
5 | CCN(CCNC)Cc1c[nH]nc1-c1ccc(F)cc1 [Compound 9] | – | 2810 | –
6 | CNCCN(C)Cc1cnn(C)c1-c1ccc(F)cc1 [Compound 10] | – | 1190 | –
7 | CNCCN(C)Cc1cnn(CC2CCOCC2)c1-c1ccc(F)cc1 [Compound 12] | – | 4840 | 191
8 | CNCCN(C)Cc1c[nH]nc1-c1cccc(N)c1 [Compound 32] | 22.2 | 1130 | –
9 | CNCCN(C)Cc1c[nH]nc1-c1ccc(CC#N)cc1 [Compound 34] | 11.3 | 1370 | –
10 | CNCCN(C)Cc1c[nH]nc1-c1ccccc1O [Compound 35] | 457 | – | –
11 | CNCCN(C)Cc1c[nH]nc1-c1cccc(OC(F)(F)F)c1 [Compound 39] | – | 2110 | 37.8
12 | CNCCN(C)Cc1c[nH]nc1-c1ccccc1NS(C)(=O)=O [Compound 41] | 8140 | – | –
13 | CNCCN(C)Cc1c[nH]nc1-c1cccc(NC(C)=O)c1 [Compound 42] | 47.6 | 2240 | –
14 | CNCCN(C)Cc1c[nH]nc1-c1cccc(C(C)=O)c1 [Compound 44] | 39.4 | 1090 | –
15 | CNCCN(C)Cc1c[nH]nc1-c1ccc(-c2ccccc2)cc1 [Compound 47] | 4.76 | 28.3 | –
16 | CNCCN(C)Cc1c[nH]nc1-c1ccccc1F [Compound 48] | – | 5620 | 44.1
17 | CC(C)Oc1ccc(-c2n[nH]cc2CN(C)CCN)cc1 [Compound 67] | – | 247 | –
18 | CN(CCN)Cc1n[nH]cc1-c1ccc(F)cc1 [Compound 69] | – | 3920 | 34.2
19 | CN(CCN)Cc1c[nH]nc1-c1cccc(C#N)c1 [Compound 70] | – | 3630 | 18.9
20 | CN(CCN)Cc1c[nH]nc1-c1cccc(F)c1 [Compound 71] | – | 715 | 8.16
21 | CN(CCN)Cc1c[nH]nc1-c1ccccc1F [Compound 72] | – | 7040 | 62.9

Row | Compound | IC50 [1, 3] [nM] | IC50 [2] [nM] | IC50 [1, 4] [nM]
22 | CN(CCN)Cc1c[nH]nc1-c1ccccc1 [Compound 73] | – | 2900 | 25.9
23 | CN(CCN)Cc1c[nH]nc1-c1ccc(C(C)(C)C)cc1 [Compound 74] | – | 3530 | 37.8
24 | CC(C)N(CCN)Cc1c[nH]nc1-c1ccc(F)cc1 [Compound 75] | – | – | 1640
25 | CN(CCN)Cc1cn(C2COC2)nc1-c1ccc(F)cc1 [Compound 77] | – | 4090 | 101
26 | NCCN(Cc1c[nH]nc1-c1ccc(F)cc1)C1CC1 [Compound 78] | – | – | 66.5
27 | CN(CCN)Cc1cnn(C2COC2)c1-c1ccc(F)cc1 [Compound 81] | – | 1630 | 105
28 | CN(CCN)Cc1c[nH]nc1-c1ccc(N2CCNCC2)cc1 [Compound 82] | – | 9010 | 129
29 | CN(CCN)Cc1nn(C)cc1-c1ccc(C#N)cc1 [Compound 83] | – | 1130 | 52.8
30 | CN(CCN)Cc1c[nH]nc1-c1ccc(C(F)(F)F)cc1C(F)(F)F [Compound 85] | – | – | 701
31 | CN(CCN)Cc1c[nH]nc1-c1ccc(Cl)cc1Cl [Compound 86] | – | 4190 | 9.16
32 | COc1ccc(-c2n[nH]cc2CN(C)CCN)c(OC)c1 [Compound 87] | – | 4380 | 103
33 | Cc1ccc(-c2n[nH]cc2CN(C)CCN)c(C)c1 [Compound 88] | – | 5220 | 29
34 | CN(CCN)Cc1c[nH]nc1-c1ccc(F)cc1Cl [Compound 89] | – | 5980 | 13.5
35 | Cc1ccc(-c2n[nH]cc2CN(C)CCN)c(Cl)c1 [Compound 90] | – | 6920 | 10.2
36 | Cc1ccc(Cl)c(-c2n[nH]cc2CN(C)CCN)c1 [Compound 91] | – | – | 237
37 | CN(CCN)Cc1c[nH]nc1-c1ccc(C(F)(F)F)cc1 [Compound 92] | – | 690 | 6.45
38 | CN(CCN)Cc1c[nH]nc1-c1ccc(OC(F)(F)F)cc1 [Compound 93] | – | 1830 | 10.7
39 | CN(CCN)Cc1c[nH]nc1-c1ccc(OC(F)F)cc1 [Compound 94] | – | 873 | 8.02
40 | CN(CCN)Cc1c[nH]nc1-c1ccc(Cl)cc1 [Compound 95] | – | 392 | 5.61
41 | CC(C)Oc1ccc(-c2n[nH]cc2CN(C)CCN)cc1Cl [Compound 168] | – | – | 11
